From US20260317356A1, “SMALL MOLECULE MODULATORS OF OGG1” (AZKARRA THERAPEUTICS, INC., priority 2023, published 2026) come the findings set out here.

SMILES strings stand for the structures.

For this assay, the target named is hOGG1 (Homo sapiens, UniProt O15527). In words: Biochemical fluorescence assay to measure enzymatic activity of hOGG1 (OGG1/APEX IC50). Set-up: Protein His-hOGG1 (12-323) was prepared; His (N); host or cells: E. coli. Conditions: 1 nM OGG1+2 nM APEX+6 nM dsDNA (8-oxo-dG substrate); pH 7.5; RT 40 min; read-out: OGG1/APEX IC50. The method in brief: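 Coupled glycosylase/AP-endonuclease read-out: 8-oxo-dG-containing dsDNA (6 nM) cleaved by 1 nM His-hOGG1 (12-323) plus 2 nM APEX1 over 40 min at room temperature, after 20 min enzyme–compound preincubation; buffer 20 mM Tris pH 7.5, 100 mM KCl, 0.1% BSA, 0.01% Tween. IC50 comes from sigmoidal 3-parameter fitting of % inhibition derived from TAMRA signal.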
Sequence of hOGG1 (O15527 12-323): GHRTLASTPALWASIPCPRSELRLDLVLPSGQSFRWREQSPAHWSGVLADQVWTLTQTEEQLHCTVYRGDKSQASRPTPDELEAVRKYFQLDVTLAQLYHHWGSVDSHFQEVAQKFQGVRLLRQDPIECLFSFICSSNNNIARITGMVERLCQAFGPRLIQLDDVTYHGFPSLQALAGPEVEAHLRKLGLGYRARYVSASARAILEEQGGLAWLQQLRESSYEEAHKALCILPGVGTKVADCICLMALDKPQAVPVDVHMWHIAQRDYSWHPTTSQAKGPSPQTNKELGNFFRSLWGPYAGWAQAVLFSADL
On to `Cc1cccc2c1CN([C@H]1CC[C@@H](C(=O)Nc3ccc4ncccc4c3)CC1)C2=O` [Example 228, (1s,4s)-4-(4-Methyl-1-oxoisoindolin-2-yl)-N-(quinolin-6-yl)cyclohexanecarboxamide], for which the IC50 fell in the range of 1000 to 10000 nM. Then `Cc1cccc2c1CN([C@H]1CC[C@@H](C(=O)Nc3ccc(O)cc3)CC1)C2=O` [Example 229, (1s,4s)-N-(4-Hydroxyphenyl)-4-(4-methyl-1-oxoisoindolin-2-yl)cyclohexanecarboxamide], with 1000 to 10000 nM; and `Cc1ccc(NC(=O)[C@H]2CC[C@@H](N3Cc4c(C)cccc4C3=O)CC2)c(O)c1` [Example 230, (1s,4s)-N-(2-Hydroxy-4-methylphenyl)-4-(4-methyl-1-oxoisoindolin-2-yl)cyclohexanecarboxamide], with 1000 to 10000 nM. Then `COc1ccc(NC(=O)[C@H]2CC[C@@H](N3Cc4c(C)cccc4C3=O)CC2)cc1C(F)(F)F` [Example 231, (1s,4s)-N-(4-Methoxy-3-(trifluoromethyl)phenyl)-4-(4-methyl-1-oxoisoindolin-2-yl)cyclohexanecarboxamide], with 100 to 1000 nM; and `Cc1ncc(NC(=O)[C@H]2CC[C@@H](N3Cc4c(C)cccc4C3=O)CC2)s1` [Example 232, (1s,4s)-4-(4-Methyl-1-oxoisoindolin-2-yl)-N-(2-methylthiazol-5-yl)cyclohexanecarboxamide], with over 10000 nM; and `COc1cccc(NC(=O)[C@H]2CC[C@@H](N3Cc4c(C)cccc4C3=O)CC2)n1` [Example 233, (1s,4s)-N-(6-Methoxypyridin-2-yl)-4-(4-methyl-1-oxoisoindolin-2-yl)cyclohexanecarboxamide], with 1000 to 10000 nM. Then `COc1cc(NC(=O)[C@H]2CC[C@@H](N3Cc4c(C)cccc4C3=O)CC2)ccn1` [Example 234, (1s,4s)-N-(2-Methoxypyridin-4-yl)-4-(4-methyl-1-oxoisoindolin-2-yl)cyclohexanecarboxamide], with over 10000 nM; and `Cc1cnc(NC(=O)[C@H]2CC[C@@H](N3Cc4c(C)cccc4C3=O)CC2)s1` [Example 235, (1s,4s)-4-(4-Methyl-1-oxoisoindolin-2-yl)-N-(5-methylthiazol-2-yl)cyclohexanecarboxamide], with over 10000 nM; and `Cc1ccc(NC(=O)[C@H]2CC[C@@H](N3Cc4c(C)cccc4C3=O)CC2)cc1C` [Example 236, (1s,4s)-N-(3,4-Dimethylphenyl)-4-(4-methyl-1-oxoisoindolin-2-yl)cyclohexanecarboxamide], with 1000 to 10000 nM.

As for `Cc1cccc2c1CN([C@H]1CC[C@@H](C(=O)Nc3ccc(Cl)c(Cl)c3)CC1)C2=O` [Example 237, (1s,4s)-N-(3,4-Dichlorophenyl)-4-(4-methyl-1-oxoisoindolin-2-yl)cyclohexanecarboxamide], the IC50 was 100 to 1000 nM. Then `COc1ccc(NC(=O)[C@H]2CC[C@@H](N3Cc4c(C)cccc4C3=O)CC2)cc1Cl` [Example 238, (1s,4s)-N-(3-Chloro-4-methoxyphenyl)-4-(4-methyl-1-oxoisoindolin-2-yl)cyclohexanecarboxamide], with 100 to 1000 nM; and `Cc1cccc2c1CN([C@H]1CC[C@@H](C(=O)Nc3nc(C)c(C)s3)CC1)C2=O` [Example 240, (1s,4s)-N-(4,5-Dimethylthiazol-2-yl)-4-(4-methyl-1-oxoisoindolin-2-yl)cyclohexanecarboxamide], with over 10000 nM; and `Cc1cccc2c1CN([C@H]1CC[C@@H](C(=O)Nc3ccc(Cl)c(F)c3)CC1)C2=O` [Example 241, (1s,4s)-N-(4-Chloro-3-fluorophenyl)-4-(4-methyl-1-oxoisoindolin-2-yl)cyclohexanecarboxamide], with 100 to 1000 nM. Then `COc1ccc(NC(=O)[C@H]2CC[C@@H](N3Cc4c(C)cccc4C3=O)CC2)c(F)c1` [Example 242, (1s,4s)-N-(2-Fluoro-4-methoxyphenyl)-4-(4-methyl-1-oxoisoindolin-2-yl)cyclohexanecarboxamide], with 1000 to 10000 nM; and `COc1c(F)cc(NC(=O)[C@H]2CC[C@@H](N3Cc4c(C)cccc4C3=O)CC2)cc1F` [Example 243, (1s,4s)-N-(3,5-Difluoro-4-methoxyphenyl)-4-(4-methyl-1-oxoisoindolin-2-yl)cyclohexanecarboxamide], with 100 to 1000 nM.

For `COc1ncc(NC(=O)[C@H]2CC[C@@H](N3Cc4c(C)cccc4C3=O)CC2)cc1C` [Example 244, (1s,4s)-N-(6-Methoxy-5-methylpyridin-3-yl)-4-(4-methyl-1-oxoisoindolin-2-yl)cyclohexanecarboxamide], the IC50 lay in the range of 100 to 1000 nM. Then `COc1cccc(NC(=O)[C@H]2CC[C@@H](N3Cc4c(C)cccc4C3=O)CC2)c1` [Example 245, (1s,4s)-N-(3-Methoxyphenyl)-4-(4-methyl-1-oxoisoindolin-2-yl)cyclohexanecarboxamide], with 1000 to 10000 nM; and `Cc1cccc2c1CN([C@H]1CC[C@@H](C(=O)Nc3ccc(=O)n(C)c3)CC1)C2=O` [Example 246, (1s,4s)-4-(4-Methyl-1-oxoisoindolin-2-yl)-N-(1-methyl-6-oxo-1,6-dihydropyridin-3-yl)cyclohexanecarboxamide], with over 10000 nM; and `Cc1cccc2c1CN([C@H]1CC[C@@H](C(=O)Nc3cccc(=O)[nH]3)CC1)C2=O` [Example 248, (1s,4s)-4-(4-Methyl-1-oxoisoindolin-2-yl)-N-(6-oxo-1,6-dihydropyridin-2-yl)cyclohexanecarboxamide], with over 10000 nM. Then `COc1ccc(NC(=O)[C@H]2CC[C@@H](N3Cc4c(C)cccc4C3=O)CC2)cn1` [Example 249, (1s,4s)-N-(6-Methoxypyridin-3-yl)-4-(4-methyl-1-oxoisoindolin-2-yl)cyclohexanecarboxamide], with 1000 to 10000 nM; and `Cc1cccc2c1CN([C@H]1CC[C@@H](C(=O)Nc3cc[nH]c(=O)c3)CC1)C2=O` [Example 250, (1s,4s)-4-(4-methyl-1-oxoisoindolin-2-yl)-N-(2-oxo-1,2-dihydropyridin-4-yl)cyclohexanecarboxamide], with over 10000 nM; and `Cc1cccc2c1CN([C@H]1CC[C@@H](C(=O)Nc3ccc(=O)[nH]c3)CC1)C2=O` [Example 251, (1s,4s)-4-(4-Methyl-1-oxoisoindolin-2-yl)-N-(6-oxo-1,6-dihydropyridin-3-yl)cyclohexanecarboxamide], with over 10000 nM.

As for `Cc1cccc2c1CN([C@H]1CC[C@@H](C(=O)Nc3ccn(C)c(=O)c3)CC1)C2=O` [Example 252, (1s,4s)-4-(4-Methyl-1-oxoisoindolin-2-yl)-N-(1-methyl-2-oxo-1,2-dihydropyridin-4-yl)cyclohexanecarboxamide], the IC50 is over 10000 nM. Then `COc1cc(NC(=O)[C@H]2CC[C@@H](N3C(=O)c4c(C)ccc(C)c4C3=O)CC2)ccc1C` [Example 253, (1s,4s)-4-(4,7-Dimethyl-1,3-dioxoisoindolin-2-yl)-N-(3-methoxy-4-methylphenyl)cyclohexanecarboxamide], with 100 to 1000 nM; and `Cc1ccc(NC(=O)[C@H]2CC[C@@H](N3Cc4c(C)cccc4C3=O)CC2)cc1C#N` [Example 254, (1s,4s)-N-(3-Cyano-4-methylphenyl)-4-(4-methyl-1-oxoisoindolin-2-yl)cyclohexanecarboxamide], with 100 to 1000 nM.
